25 compounds from patent US20230242558A1, “NICOTINATE AND NICOTINAMIDE RIBOSIDE-BASED COMPOUNDS AND DERIVATIVES THEREOF” (New Frontier Bio, Inc., priority 2022, published 2023) can be followed below.

SMILES strings stand for the structures.

In experiment [1] the test system is NHDF cells. As to the kind of experiment: General NAD Assay Procedure: total NAD level in NHDF cells (NAD/NADH Quantification Kit). It is filed as cell-based. The conditions noted are these: for increase in NAD levels compared with NMN: 6-hour time point, all concentrations. On the procedure:
NHDF cells (Lonza Cat #CC-2511) were plated in 12-well tissue culture plates at a density of 200,000 cells per well in 0.75 mL growth medium (Lonza FGM-2 cat #CC-3132 containing growth factors; cat #CC-4126). The plates were then incubated overnight at 37° C. in a humidified atmosphere of 5% CO2. The next day, dilutions of each test article were prepared in growth medium at 4× the desired final concentration. 250 μL of each dilution was added to respective wells to obtain desired concentration in each well. The cells were incubated for the desired length of time.
After the incubation, the cell monolayers in each well were washed with cold PBS. 400 μL of extraction buffer (provided in the NAD assay kit) was added and triturated 5-6 time. The cell lysate was collected in Eppendorf tubes and then flash frozen in a dry ice-methanol bath for 20 min then thawed at room temperature. The freeze-thaw cycle was repeated one additional time. The cell lysates were centrifuged and the supernatant collected stored at −80° C. until use.
An aliquot of extract was used to determine total protein concentration using Pierce BCA kit (Thermo Fisher Cat #23225). The total volumes of each sample were adjusted so that the total protein concentration was same in all samples.
50 μL of standards and each sample were added to appropriate wells of a 96-well plate, and the NAD assay according to the kit manufacturer's instructions (NAD/NADH Quantification Kit; Sigma-Aldrich; Catalog Number MAK037). The absorbance at 450 nm was measured using an Envision plate reader (Perkin Elmer) with default settings. The data was normalized against a blank. A standard curve was plotted and used to determine the total NAD level in each test sample.

Experiment [2] relates to HaCaT cells. As to the kind of experiment: NAD assay in HaCaT cells, total NAD level normalized to protein. It is filed as cell-based. The note with it: 4 hours incubation, concentration not given. The procedure:
The biological activity of certain compounds disclosed herein was determined using the following method: • 1. Plate HaCaT cells in 12-well tissue culture plates at a density of 200,000 cells per well in 0.75 mL DMEM growth medium. Incubate overnight at 37° C. in a incubator at 5% CO2. • 2. Next day, prepare dilutions of each compound in growth medium at the desired final concentration. • 3. Incubate cells as above for 4 hours. • 4. After the incubation, wash cell monolayers in each well with 200 uL PBS and add 200 uL 0.25% Trypsin. Let cells lift for 15 minutes. • 5. Once cells are lifted, collect cells into sterile 1.5 mL Eppendorf tube containing 400 uL of DMEM w/2% HI FBS. • 6. Centrifuge tubes for 500×g for 5 min. • 7. Aspirate supernatant and wash cells with 200 uL of cold PBS. • 8. Centrifuge tubes for 500×g for 5 min. • 9. Aspirate supernatant and add 400 μL of cold extraction buffer (provided in the NAD assay kit) and vortex each tube for 10 seconds. • 10. Centrifuge samples at 13,000×g for 10 min to remove insoluble material. • 11. Use a small aliquot of extract to determine total protein concentration by BCA protein assay kit. • 12. Deproteinize samples by filtering them through a 10 kDa cut-off spin filter. Centrifuge at 13,000×g for 10 min. • 13. After cell lysate is filtered, load 25 uL of samples to 96 well plate for NAD assay. • 14. Add 25 uL of extraction buffer to each well with samples to dilute them 1:2. Add 50 uL of standards to appropriate wells. • 15. Set up master reaction mix of cycling buffer and NAD cycling enzyme mix. Add 100 uL of mix to each well and incubate for […]. • 16. Add 10 uL of developer into each well. • 17. Let plate incubate at room temperature for 1 hr. • 18. Stop the reaction by adding 10 uL of stop solution into each well and mix well. • 19. Measure absorbance at 450 nm using plate reader. • 20. Plot standard curve and normalize data to determine total NAD level.

Consider `O=C(NCCCCCC[P+](c1ccccc1)(c1ccccc1)c1ccccc1)c1ccc[n+]([C@@H]2O[C@H](COP(=O)(O)O)[C@@H](O)[C@H]2O)c1` [Sample 2, 1-((2R,3R,4S,5R)-3,4-dihydroxy-5-((phosphonooxy)methyl)tetrahydrofuran-2-yl)-3-((6-(triphenylphosphonio)hexyl)carbamoyl)pyridin-1-ium], for which the “Average Total NAD (pmoles) Concentration from NAD Assay” value (“Average Total NAD” for short) in experiment [1] (3-Hour, Conc. 5 μM) came out at 35.5 pmol; in experiment [1] (3-Hour, Conc. 10 μM) it was 45.5 pmol; in experiment [1] (3-Hour, Conc. 20 μM), 59.3 pmol; in experiment [1] (6-Hour, Conc. 5 μM) it was 82.2 pmol; in experiment [1] (6-Hour, Conc. 10 μM), 82.0 pmol; in experiment [1] (6-Hour, Conc. 20 μM), 74.5 pmol. Besides, the “increase in NAD levels compared with NMN” value in experiment [1] was “greater increase in NAD levels than NMN”.

Take `NC(=O)c1ccc[n+]([C@@H]2O[C@H](COP(=O)([O-])O)[C@@H](O)[C@H]2O)c1` [NMN, nicotinamide mononucleotide, reference compound]: the “Average Total NAD” value in experiment [1] (3-Hour, Conc. 5 μM) is 48.5 pmol; in experiment [1] (3-Hour, Conc. 10 μM), 63.5 pmol; in experiment [1] (3-Hour, Conc. 20 μM) it was 63.1 pmol; in experiment [1] (6-Hour, Conc. 5 μM), 50.9 pmol; in experiment [1] (6-Hour, Conc. 10 μM), 54.9 pmol; in experiment [1] (6-Hour, Conc. 20 μM), 58.6 pmol.

As for `O=C(NCCCCCC[P+](c1ccccc1)(c1ccccc1)c1ccccc1)c1cccnc1` [Sample 5], the “Average Total NAD” value in experiment [1] (3-Hour, Conc. 5 μM) was determined as 41.6 pmol; in experiment [1] (3-Hour, Conc. 10 μM), 57.5 pmol; in experiment [1] (3-Hour, Conc. 20 μM), 60.0 pmol; in experiment [1] (6-Hour, Conc. 5 μM), 68.2 pmol; in experiment [1] (6-Hour, Conc. 10 μM), 77.0 pmol; in experiment [1] (6-Hour, Conc. 20 μM), 76.0 pmol. The “increase in NAD levels compared with NMN” value in experiment [1] was “greater increase in NAD levels than NMN”.

With `O=C(NCC[P+](c1ccccc1)(c1ccccc1)c1ccccc1)c1cccnc1`, the “NAD+ level” value in experiment [2] is on record as 466 pmol/mg protein.

For `O=C(Oc1ccc2c(c1)oc(=O)c1cc(O)ccc12)c1cccnc1`, the “NAD+ level” value in experiment [2] is 681 pmol/mg protein.

On to `O=C(NCCCCCC[P+](c1ccccc1)(c1ccccc1)c1ccccc1)c1ccc[n+]([C@@H]2O[C@H](CO)[C@@H](O)[C@H]2O)c1`, for which the “NAD+ level” value in experiment [2] is recorded as 285 pmol/mg protein.

`O=C(Oc1ccc(/C=C/c2cc(OC(=O)c3cccnc3)cc(OC(=O)c3cccnc3)c2)cc1)c1cccnc1`: the “NAD+ level” value in experiment [2] amounted to 616 pmol/mg protein.

Turning to `CC(=O)OC[C@H]1O[C@@H]([n+]2cccc(C(=O)OCCOC(=O)c3ccc[n+]([C@@H]4O[C@H](COC(C)=O)[C@@H](OC(C)=O)[C@H]4OC(C)=O)c3)c2)[C@H](OC(C)=O)[C@@H]1OC(C)=O`, the “NAD+ level” value in experiment [2] came out at 655 pmol/mg protein.

As for `O=C(OCCCCCC[P+](c1ccccc1)(c1ccccc1)c1ccccc1)c1cccnc1`, in experiment [2], the “NAD+ level” value is less than 1 pmol/mg protein.

As to `[2H]c1nc([2H])c(C(=O)NCCCCCC[P+](c2ccccc2)(c2ccccc2)c2ccccc2)c([2H])c1[2H]`, in experiment [2], the “NAD+ level” value was 435 pmol/mg protein.

`CCCCCCCCCCCCCCOC(=O)c1ccc[n+]([C@@H]2O[C@H](COP(=O)([O-])O)[C@@H](O)[C@H]2O)c1`: the “NAD+ level” value in experiment [2] stood at 475 pmol/mg protein.

With `COC(=O)c1ccc[n+]([C@@H]2O[C@H](COC(C)=O)[C@@H](OC(C)=O)[C@H]2OC(C)=O)c1`, in experiment [2], the “NAD+ level” value came out at 323 pmol/mg protein.

Turning to `CC1CCC(C(C)C)C(OC(=O)c2ccc[n+]([C@@H]3O[C@H](CO)[C@@H](O)[C@H]3O)c2)C1` (some centres unmarked), in experiment [2], the “NAD+ level” value is given as 464 pmol/mg protein.

Turning to `CC(C)(C)OC(=O)c1ccc[n+]([C@@H]2O[C@H](COP(=O)([O-])O)[C@@H](O)[C@H]2O)c1`, in experiment [2], the “NAD+ level” value was less than 1 pmol/mg protein.

For `O=C(Oc1cc(OC(=O)c2cccnc2)c2c(=O)c(O)c(-c3ccc(OC(=O)c4cccnc4)c(OC(=O)c4cccnc4)c3)oc2c1)c1cccnc1`, in experiment [2], the “NAD+ level” value is on record as 328 pmol/mg protein.

For the compound `O=C(Cc1ccccc1Nc1c(Cl)cccc1Cl)NCCNC(=O)c1cccnc1`, in experiment [2], the “NAD+ level” value is 338 pmol/mg protein.

Regarding `CC(=O)OC[C@H]1O[C@@H]([n+]2cccc(C(=O)NCCNC(=O)c3ccc[n+]([C@@H]4O[C@H](COC(C)=O)[C@@H](OC(C)=O)[C@H]4OC(C)=O)c3)c2)[C@H](OC(C)=O)[C@@H]1OC(C)=O`, in experiment [2], the “NAD+ level” value was determined as 354 pmol/mg protein.

Regarding `O=C(OCCO)c1cccnc1`, in experiment [2], the “NAD+ level” value is on record as 501 pmol/mg protein.

`CC1CCC(C(C)C)C(OC(=O)c2cccnc2)C1` (centres unmarked): in experiment [2], the “NAD+ level” value is less than 1 pmol/mg protein.

With `O=C(O)c1ccc[n+]([C@@H]2O[C@H](COC(=O)c3cccnc3)[C@@H](OC(=O)c3cccnc3)[C@H]2OC(=O)c2cccnc2)c1`, the “NAD+ level” value in experiment [2] stood at 656 pmol/mg protein.

In the case of `O=C(OCCOCCC[P+](c1ccccc1)(c1ccccc1)c1ccccc1)c1cccnc1`, the “NAD+ level” value in experiment [2] is on record as less than 1 pmol/mg protein.

As for `O=C(Sc1ccccc1)c1ccc[n+]([C@@H]2O[C@H](CO)[C@@H](O)[C@H]2O)c1`, in experiment [2], the “NAD+ level” value was less than 1 pmol/mg protein.

`CC(=O)OC[C@H]1O[C@@H]([n+]2cccc(C(=O)Oc3ccc(/C=C/c4cc(OC(C)=O)cc(OC(C)=O)c4)cc3)c2)[C@H](OC(C)=O)[C@@H]1OC(C)=O`: the “NAD+ level” value in experiment [2] is on record as less than 1 pmol/mg protein.

For the compound `O=C(O)c1ccc[n+]([C@@H]2O[C@H](COP(=O)(O)O)[C@@H](O)[C@H]2O)c1` [Sample 1, Nicotinic acid mononucleotide], the “Average Total NAD” value in experiment [1] (3-Hour, Conc. 5 μM) is 38.1 pmol; in experiment [1] (3-Hour, Conc. 10 μM), 55.0 pmol; in experiment [1] (3-Hour, Conc. 20 μM) it was 59.0 pmol; in experiment [1] (6-Hour, Conc. 5 μM), 72.6 pmol; in experiment [1] (6-Hour, Conc. 10 μM) it was 77.8 pmol; in experiment [1] (6-Hour, Conc. 20 μM) it was 79.4 pmol.

With `O=C(OCc1ccccc1)c1ccc[n+]([C@@H]2O[C@H](CO)[C@@H](O)[C@H]2O)c1`, in experiment [2], the “NAD+ level” value amounted to 463 pmol/mg protein.
